Reference: publication PMC7358525, “Characterization of PF-6142, a Novel, Non-Catecholamine Dopamine Receptor D1 Agonist, in Murine and Nonhuman Primate Models of Dopaminergic Activation” (Frontiers in Pharmacology, 2020)

How the values were obtained:
Format in all cases: in vivo
[1] = test system: time spent awake, in SWS and REM sleep; test: Rat polysomnography; conditions: 5.6 mg/kg s.c., first 4 h
Text: Model 4ET telemetry device components (Data Sciences International, St Paul, MN, USA) were bilaterally placed in subcutaneous pockets on the dorsal flank of adult male Sprague-Dawley rats (200–400 grams). Two pairs of leads were implanted superficially to burr holes drilled over the frontal cortex (stainless steel screws, Plastics One, Roanoke, VA at coordinates: A-P = +1.5 mm, M-L = 1.5 mm) and parietal cortex (coordinates: A-P = −3.7 mm, M-L = −2.2 mm), and the cerebellum bilaterally to be used as ground and reference for electroencephalographic (EEG) recordings. A stainless-steel wire (Plastics One, Roanoke, VA) was implanted into the neck muscle to monitor electromyogram (EMG). All recordings were performed inside the home cages of animals using RPC-2 telemetry receivers (Data Sciences International, St. Paul, MN) at a sampling rate of 500 Hz for data acquisition. Baseline data, while on vehicle, were obtained for 24 h prior to compound administration. PF-6142 (1.0 or 5.6 mg/kg, s.c.) was administered acutely following the baseline day.
Raw EEG traces were analyzed using custom scripts in MATLAB (The Mathworks, Natick, MA, version 7.8 (R2009a)) to evaluate spectral changes between treatment groups. Raw EEG data were read into the MATLAB software, segmented to match that of the polysomnography (PSG) data (see below) and fast Fourier transforms (FFTs) were performed. Only data collected on the parietal lead were the subject of statistical analyses. PSG analysis was applied to all EEG/EMG data and utilized an in-house algorithm developed in LabView (National Instruments, Austin TX) as previously described ([Harvey et al., 2013]).
Relative power data in each band aggregated over 2 h-long time bins, while on drug, were normalized to baseline levels in corresponding time bins relative to dosing. For statistical analysis the R software was used. The effects of two within factors, dose and time, on cumulative time spent in three stages, awake, REM, and NREM sleep were assessed using generalized linear mixed model. […]

[2] = Plasma exposure (PK), mouse; conditions: 5.6 mg/kg SC, 1 h
Description: Across the set of experiments, PK was either collected from satellite animals or in separate, dedicated studies. In addition to plasma PK, exposures were obtained in brain tissue for rat and mouse, and plasma protein binding and brain tissue binding were measured. Using the measured exposures, partitioning, and binding parameters, and the […]

mouse locomotor activity = test: Mouse locomotor activity (LMA)
Description: Locomotor activity data were measured by an automated infrared photo-beam system in sound attenuating chambers controlled by Versamax® software, provided by Accuscan Instruments Inc. (Columbus, Ohio), which quantified beam breaks similar to the methods used previously ([Xu et al., 2000]). To test D1 receptor selectivity in a pharmacologic model, C57BL/6J mice were habituated to the apparatus for 90 min, followed by pretreatment with vehicle or SCH-23390 (0.01, 0.032, 0.1 0.32, s.c.) and returned to the apparatus for 30 min. […] Data were compared against the vehicle group using a repeated measures one-way ANOVA with a Dunnett’s post-test. To test D1 receptor selectivity in a genetic model, DRD1a WT and knockout mice (D1 KO) were habituated to the apparatus for 90 min, pretreated with vehicle or SCH-23390 (0.032 mg/kg, s.c.) and returned to the apparatus for 30 min. […] Data were compared within genotype using a two-way ANOVA with a Dunnett’s post-hoc test versus vehicle treated group.

**Q.** Which “decrease of time spent in slow-wave sleep relative to vehicle” value [1] does the source give for `Cc1cc(Oc2nccc3occc23)ccc1-c1c(C)ncc2nccn12` [PF-6142] here?
**A.** 88.1%

**Q.** What about the “difference in fraction of REM sleep, vehicle vs high dose group” value [1] of the same compound?
**A.** 88.2%

**Q.** What about the “increase of time spent awake” value [1] of the same compound?
**A.** 246.9%

**Q.** And the PF-6142 plasma concentration [2]?
**A.** 332 ng/mL

**Q.** And the “horizontal activity, five consecutive days of dosing” value (mouse locomotor activity; 1.78 mg/kg daily)?
**A.** did not significantly increase horizontal activity

**Q.** What about the “horizontal activity, five consecutive days of dosing” value (mouse locomotor activity; 3.2 mg/kg s.c. daily (p=0.0311 day 4, p=0.0309 day 5)) of the same compound?
**A.** only increased activity significantly on days 4 and 5

**Q.** What about the “locomotor activity, five consecutive days of dosing” value (mouse locomotor activity; 10 mg/kg s.c. daily, CD-1 mice) of the same compound?
**A.** increased locomotor activity

**Q.** What about the locomotor activity (mouse locomotor activity; D1 KO mice, 10 mg/kg s.c. (p=0.6731)) of the same compound?
**A.** did not show hyperactivity

**Q.** And the locomotor activity (mouse locomotor activity; WT mice, 10 mg/kg s.c.)?
**A.** increased activity in the WT mice

**Q.** And the “horizontal activity (beam breaks, 2 h)” value (mouse locomotor activity; acute 0.32-10 mg/kg s.c., significant at 10 mg/kg (p<0.0001))?
**A.** dose-dependently increased horizontal activity
